Literature values as cited in US12029226B2, “Concentrate for preparing a drinkable solution (II)” (Alzchem Trostberg GmbH, priority 2019, dated 2024).

Conditions: literature value

SMILES | pKs value
O=CO [formic acid] | 3.77
CC(O)C(=O)O (centres unmarked) [lactic acid] | 3.90+/−0.11
